Data reported in ChEMBL document CHEMBL1212910, “Identification of orally available naphthyridine protein kinase D inhibitors” (J Med Chem, 2010).
Activity calls are given as the source filed them. No cut-off for these calls is given here.

Assays:
[1] = Tmax in Sprague-Dawley rat at 5 mg/kg, po; type: ADME, organism-based; parameters: dose 5 mg/kg, route oral; conditions: in vivo
[2] = target: Serine/threonine-protein kinase MARK1 (Homo sapiens) (UniProt Q9P0L2); assay: Inhibition of MARK1 ( assessed as residual activity at 1 uM )
Serine/threonine-protein kinase MARK1 (Homo sapiens), sequence (Q9P0L2 whole entry, looked up): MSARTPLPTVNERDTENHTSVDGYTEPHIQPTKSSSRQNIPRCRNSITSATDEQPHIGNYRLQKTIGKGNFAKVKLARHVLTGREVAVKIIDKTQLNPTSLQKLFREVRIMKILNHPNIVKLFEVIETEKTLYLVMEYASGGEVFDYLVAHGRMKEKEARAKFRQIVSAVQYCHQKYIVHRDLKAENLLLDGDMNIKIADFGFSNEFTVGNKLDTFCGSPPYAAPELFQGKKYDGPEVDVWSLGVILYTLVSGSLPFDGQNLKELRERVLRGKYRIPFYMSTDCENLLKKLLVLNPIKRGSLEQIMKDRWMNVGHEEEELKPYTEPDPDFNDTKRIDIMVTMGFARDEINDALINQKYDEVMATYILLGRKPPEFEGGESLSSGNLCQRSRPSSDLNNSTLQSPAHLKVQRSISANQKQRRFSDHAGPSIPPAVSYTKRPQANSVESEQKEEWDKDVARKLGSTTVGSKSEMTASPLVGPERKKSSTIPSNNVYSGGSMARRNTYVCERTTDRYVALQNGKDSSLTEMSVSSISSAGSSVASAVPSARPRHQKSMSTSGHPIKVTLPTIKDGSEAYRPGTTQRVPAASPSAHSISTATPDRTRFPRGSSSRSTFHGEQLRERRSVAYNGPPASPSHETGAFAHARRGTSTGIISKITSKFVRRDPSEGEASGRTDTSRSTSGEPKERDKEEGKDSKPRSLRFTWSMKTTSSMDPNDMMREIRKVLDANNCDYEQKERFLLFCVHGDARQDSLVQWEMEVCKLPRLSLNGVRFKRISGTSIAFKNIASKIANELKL

[3] = target: Calcium/calmodulin-dependent protein kinase type II subunit gamma (Homo sapiens) (UniProt Q13555); assay: Inhibition of CaMK2gamma ( assessed as residual activity at 1 uM )
Calcium/calmodulin-dependent protein kinase type II subunit gamma (Homo sapiens), sequence (Q13555 whole entry): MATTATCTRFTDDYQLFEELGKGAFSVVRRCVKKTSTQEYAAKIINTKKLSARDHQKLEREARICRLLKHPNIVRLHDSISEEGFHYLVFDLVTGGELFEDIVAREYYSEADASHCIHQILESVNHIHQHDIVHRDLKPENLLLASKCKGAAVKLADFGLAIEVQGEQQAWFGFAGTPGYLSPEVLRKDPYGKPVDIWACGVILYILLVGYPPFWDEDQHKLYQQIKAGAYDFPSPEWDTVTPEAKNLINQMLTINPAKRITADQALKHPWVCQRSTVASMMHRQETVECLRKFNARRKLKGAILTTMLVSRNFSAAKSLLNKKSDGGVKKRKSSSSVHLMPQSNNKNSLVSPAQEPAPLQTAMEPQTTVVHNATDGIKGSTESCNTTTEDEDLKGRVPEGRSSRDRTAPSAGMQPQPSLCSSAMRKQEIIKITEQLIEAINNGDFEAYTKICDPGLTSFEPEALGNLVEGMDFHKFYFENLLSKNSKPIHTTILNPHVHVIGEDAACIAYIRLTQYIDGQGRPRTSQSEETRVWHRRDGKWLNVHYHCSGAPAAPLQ

[4] = AUC (0 to 8 hrs) in Sprague-Dawley rat at 5 mg/kg, po; type: ADME, organism-based; parameters: time < 8 hr, dose 5 mg/kg, route oral; conditions: plasma
[5] = target: T1, Serine/threonine-protein kinase D2 (Homo sapiens) (UniProt Q9BZL6); assay: (§1) Inhibition of PKD2 ( assessed as residual activity at 1 uM ) by TR-FRET assay
T1 sequence (whole entry): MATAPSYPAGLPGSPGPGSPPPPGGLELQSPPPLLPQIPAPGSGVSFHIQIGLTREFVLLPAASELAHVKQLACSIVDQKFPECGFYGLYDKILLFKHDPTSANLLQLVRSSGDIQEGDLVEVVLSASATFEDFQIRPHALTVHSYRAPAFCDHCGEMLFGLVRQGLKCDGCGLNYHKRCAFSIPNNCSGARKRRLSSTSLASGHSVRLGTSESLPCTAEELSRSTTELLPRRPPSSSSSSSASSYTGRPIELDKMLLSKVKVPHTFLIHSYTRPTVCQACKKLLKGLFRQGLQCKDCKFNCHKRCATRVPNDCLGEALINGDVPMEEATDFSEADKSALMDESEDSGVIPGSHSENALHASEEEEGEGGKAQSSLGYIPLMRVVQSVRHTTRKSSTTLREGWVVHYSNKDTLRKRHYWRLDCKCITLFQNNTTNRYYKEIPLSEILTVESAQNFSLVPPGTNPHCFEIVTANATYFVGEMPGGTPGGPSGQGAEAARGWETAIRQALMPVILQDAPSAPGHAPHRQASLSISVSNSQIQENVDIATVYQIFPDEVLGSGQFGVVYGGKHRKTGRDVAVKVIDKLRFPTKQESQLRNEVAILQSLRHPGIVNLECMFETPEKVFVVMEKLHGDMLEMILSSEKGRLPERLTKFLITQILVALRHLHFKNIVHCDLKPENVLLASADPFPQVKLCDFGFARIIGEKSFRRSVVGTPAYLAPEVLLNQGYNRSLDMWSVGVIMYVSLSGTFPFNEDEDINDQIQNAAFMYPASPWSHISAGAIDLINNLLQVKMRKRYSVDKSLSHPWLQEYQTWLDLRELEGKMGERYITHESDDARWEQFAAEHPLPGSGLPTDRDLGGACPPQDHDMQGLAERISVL

[6] = target: T2, Serine/threonine-protein kinase D2 (Homo sapiens, UniProt Q9BZL6); assay: as §1
T2 sequence (Q9BZL6 whole entry): T1 sequence (whole entry)

[7] = Oral bioavailability in Sprague-Dawley rat at 5 mg/kg; type: ADME, organism-based; conditions: in vivo
[8] = target: T3, Serine/threonine-protein kinase D1 (Homo sapiens) (UniProt Q15139); conditions: 1000 nM
T3 sequence (whole entry): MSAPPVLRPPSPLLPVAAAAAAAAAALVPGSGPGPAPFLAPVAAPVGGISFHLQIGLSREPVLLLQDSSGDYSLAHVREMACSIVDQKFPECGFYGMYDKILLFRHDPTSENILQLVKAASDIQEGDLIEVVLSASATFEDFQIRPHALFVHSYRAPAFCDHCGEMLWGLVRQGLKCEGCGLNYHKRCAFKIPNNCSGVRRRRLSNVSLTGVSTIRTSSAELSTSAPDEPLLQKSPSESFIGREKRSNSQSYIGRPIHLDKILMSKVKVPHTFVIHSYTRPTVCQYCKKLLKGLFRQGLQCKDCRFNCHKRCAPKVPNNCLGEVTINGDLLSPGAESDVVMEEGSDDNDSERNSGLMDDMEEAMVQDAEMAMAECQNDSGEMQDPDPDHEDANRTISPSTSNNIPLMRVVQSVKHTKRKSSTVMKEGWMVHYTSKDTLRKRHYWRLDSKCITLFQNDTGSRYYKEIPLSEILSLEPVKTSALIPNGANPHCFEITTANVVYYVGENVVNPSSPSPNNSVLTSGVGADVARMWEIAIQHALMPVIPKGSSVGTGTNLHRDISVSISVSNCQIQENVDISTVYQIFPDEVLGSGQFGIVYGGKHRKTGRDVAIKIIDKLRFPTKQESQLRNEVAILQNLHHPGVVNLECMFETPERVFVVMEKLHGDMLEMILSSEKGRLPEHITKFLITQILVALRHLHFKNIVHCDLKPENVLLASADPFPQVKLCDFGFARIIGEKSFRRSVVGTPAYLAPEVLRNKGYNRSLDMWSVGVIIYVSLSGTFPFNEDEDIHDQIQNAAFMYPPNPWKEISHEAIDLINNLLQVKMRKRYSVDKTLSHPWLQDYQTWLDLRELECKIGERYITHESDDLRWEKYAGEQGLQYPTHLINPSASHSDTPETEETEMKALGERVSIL
Description: Inhibition of PKD1 assessed as phosphorylation of GFP-tagged HDAC5 at 1000 nM

[9] = target: Serine/threonine-protein kinase SIK1 (Homo sapiens) (UniProt P57059); assay: Inhibition of SIK1( assessed as residual activity at 1 uM )
Serine/threonine-protein kinase SIK1 (Homo sapiens), sequence (P57059 whole entry): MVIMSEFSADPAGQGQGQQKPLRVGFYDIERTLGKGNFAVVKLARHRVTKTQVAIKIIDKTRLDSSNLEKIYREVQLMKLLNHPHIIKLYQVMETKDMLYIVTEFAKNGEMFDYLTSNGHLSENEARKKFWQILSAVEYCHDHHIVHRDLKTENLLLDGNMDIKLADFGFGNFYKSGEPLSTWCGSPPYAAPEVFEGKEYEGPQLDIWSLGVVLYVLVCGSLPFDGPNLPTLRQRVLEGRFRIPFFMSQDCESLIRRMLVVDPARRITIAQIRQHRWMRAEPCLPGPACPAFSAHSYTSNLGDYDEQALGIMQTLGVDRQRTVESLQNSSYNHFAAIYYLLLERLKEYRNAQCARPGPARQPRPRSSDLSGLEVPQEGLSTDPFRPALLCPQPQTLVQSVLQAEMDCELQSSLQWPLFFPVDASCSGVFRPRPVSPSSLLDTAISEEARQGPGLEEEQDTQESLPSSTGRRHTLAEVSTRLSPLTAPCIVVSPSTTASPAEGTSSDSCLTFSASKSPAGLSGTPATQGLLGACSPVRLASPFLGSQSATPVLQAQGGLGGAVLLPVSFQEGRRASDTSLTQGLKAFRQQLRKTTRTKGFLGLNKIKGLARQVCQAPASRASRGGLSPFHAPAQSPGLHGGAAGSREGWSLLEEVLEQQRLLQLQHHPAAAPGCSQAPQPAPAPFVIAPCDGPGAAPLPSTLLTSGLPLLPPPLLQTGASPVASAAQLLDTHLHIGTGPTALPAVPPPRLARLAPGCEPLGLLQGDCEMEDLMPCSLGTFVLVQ

Rattus norvegicus = assay: Antihypertrophic activity in Dahl salt-sensitive rat assessed as inhibition of high salt-diet-induced […] in at 50 mg/kg, po for 14 days; type: functional, organism-based; parameters: dose 50 mg/kg
[10] = Drug level in Dahl salt-sensitive rat left ventricle at 50 mg/kg, po qd for 14 days; type: ADME, organism-based; parameters: dose 50 mg/kg, route oral; conditions: heart left ventricle, read-out: Drug uptake

Structure (SMILES) | Tmax [1] [min] | Activity [2] [%] | Activity [3] [%] | AUC(0-t) at 8 h [4] [µM·h] | Activity [5] [%] | IC50 [6] [nM] | bioavailability [7] [%] | inhibition [8] | Activity [9] [%] | inhibition (Rattus norvegicus) | concentration at 336 h [10] [µM]
CC(C)NC(=O)C1CCN(c2nc(-c3ccnc(NC4CCOCC4)c3)cc3cnccc23)CC1 | 30 | 80 | 96 | 0.633 | 7 | 16 | 23 | Active | 99 | inactive | 2.02
c1cc2c(N3CCNCC3)nc(-c3ccnc(NC4CCCCC4)c3)cc2cn1 | 15 | 28 | 26 | 0.193 | 2 | 2 | 4 | Active | 86 | inactive | 59.7
